Experimental data published in patent publication US20220023232A1, “USE OF CANNABINOIDS IN THE TREATMENT OF EPILEPSY” (GW Research Limited, priority 2019, published 2022).

Columns and labels:
[1] = system: seizures; conditions: 200 mg/day, four adult patients; cited from earlier work
[2] = system: seizures; conditions: 200 mg/day, twelve institutionalized adult patients, open label; cited from earlier work
[3] = system: seizures; conditions: mice, after pro-convulsant drugs or an electric current; cited from earlier work
[4] = Solubility of drug substance in water; assay type: physicochemical
Description: Sesame oil was selected as an excipient to solubilize the drug substance.

[5] = system: secondary generalized epilepsy; conditions: eight adult patients; cited from earlier work
[6] = system: epilepsy associated with KCNT1 mutation (EIMFS); assay: Expanded access case study of highly purified CBD in a child with KCNT1 mutation associated EIMFS; assay type: in vivo, human
Method: The child was […] when they were enrolled in an expanded access compassionate use program for CBD. The patient was diagnosed with Epilepsy of Infancy with Migrating Focal Seizures (EIMFS).
This subject was treated with a highly purified extract of cannabidiol (CBD) obtained from a cannabis plant. Seizure frequency and severity was documented in seizure diaries at baseline (4-week pre-treatment period) and over the treatment period. At each visit quality of life changes, including mood, behaviour, and cognitive function were recorded in addition to global impression of change using a numerical scale.
The patient first presented with seizures on the first day of life. They experienced on average 14 seizures per day. The types of seizure that occurred were motor arrest; asymmetric tonic; clonic extremity movements, irregular breathing and cyanosis.
The patient had tried and failed seven different anti-epileptic drugs and at the time of treatment and continued on the ketogenic diet however their seizures remained refractory.
Pharmaceutical-grade plant-derived CBD oral solution was gradually titrated by 2 to 5 mg/kg increments up to a maximum dose of 25 mg/kg/day.
Laboratory testing for hematologic, liver, kidney function and concomitant AED levels was performed at baseline, and after every 4 weeks of CBD therapy.
The patient was treated for over three years and remains on treatment currently.

[7] = system: seizures; conditions: rabbit, in vivo; cited from earlier work
[8] = one patient, oral CBD up to 25 mg/kg/day

SMILES | seizure freedom [1] | control of seizures [2] | prevention of seizures [3] | solubility in water [4] | number of patients with marked reduction of seizures [5] | demeanour and developmental milestones (caregiver documented) ([6]; after 6 months of treatment) | reduction in overall seizure frequency ([6]; after 16 weeks of treatment, 25 mg/kg/day, one patient) [%] | side effects at maximum dose ([6]; after 16 weeks, 25 mg/kg/day) | side effect on titration ([6]; initial 12 week period, CBD titrated too quickly) | overall seizure frequency increase compared to baseline ([6]; initial 12 weeks of treatment, maximum dose of 25 mg/kg/day not reached, one patient) [%] | seizure severity ([6]; one patient) | reduction in Type C seizures (irregular breathing, cyanosis and clonic extremity movements) [6, 8] [%] | reduction in Type D seizures (most severe, asymmetric tonic seizures) [6, 8] [%] | effect on convulsions [7]
C=C(C)[C@@H]1CCC(C)=C[C@H]1c1c(O)cc(CCCCC)cc1O [CBD, Cannabidiol] | two of the four patients became seizure free | ineffective | able to prevent seizures | insoluble in water | 4 | more interactive and had attained new milestones including babbling, smiling, and fixing | 12 | without side effects | somnolence | 13 | clinically meaningful reduction in seizure severity | 93 | 48 | –
CCCCCc1cc(O)c2c(c1)OC(C)(C)[C@@H]1CCC(C)=C[C@@H]21 [THC, Tetrahydrocannabinol] | – | – | – | – | – | – | – | – | – | – | – | – | – | pro-convulsant
